Data from PMC11280065, “^64Cu^2+ Complexes of Tripodal Amine Ligands’ In Vivo Tumor and Liver Uptakes and Intracellular Cu Distribution in the Extrahepatic Bile Duct Carcinoma Cell Line TFK-1: A Basic Comparative Study” (Pharmaceuticals, 2024).

How the values were obtained:
[1] = test system: mice bearing TFK-1-RFP cells; details: mean ± SD
TFK-1 cells = assay: Micro-PIXE analysis of intracellular Cu distribution; type: cell-based, human; details: compared among the three Cu2+ complexes and Cu2+ ions, no significant differences
Text: A positive correlation was observed between in vitro whole-cell uptake and in vivo tumor uptake (R = 0.992, p = 0.00772) (Figure S2). Similarly, we observed a consistent correlation between in vitro nuclear uptake and in vivo tumor uptake (417.6 counts ± 150.02 for Cu^2+-Tren, 203.00 counts ± 25.13 for Cu^2+-Dien, 94.82 counts ± 48.07 for Cu^2+-TPMA, and 35.57 counts ± 25.02 for Cu^2+ ions) (p < 0.05).
The human extrahepatic bile duct carcinoma cell line TFK-1 was obtained from the RIKEN Bioresource Research Center (Ibaraki, Japan) and immediately expanded and frozen in our laboratory. […] Exponentially growing cells were detached from plates using trypsin (0.5 w/v% Trypsin-5.3 mmol/L EDTA·4Na Solution without Phenol Red (×10), Fujifilm Wako Pure Chemical Corporation, Osaka, Japan), and the number of viable cells was determined using the trypan blue dye (Bio-Rad, Hercules CA, USA) exclusion method.
A micro-PIXE analysis was carried out at the QST Electrostatic Accelerator Facility. […] Cells were subsequently stained with DAPI (4′,6-diamidino-2-phenylindole; Bio-Rad, Hercules, CA, USA) for nuclear localization and observed under a fluorescence microscope (BZ-X810, Keyence, Osaka, Japan). […] Distributions of Cu, P, K, Ca, Al, Fe, and S in each group were determined using Kα lines. […] Nuclei localization was determined via fluorescence microscope images of DAPI staining. […]

Question: For [Cl-].[Cl-].[Cu+2].c1ccc(CN(Cc2ccccn2)Cc2ccccn2)nc1 [Cu^2+-TPMA], which tumor uptake ([1]; TFK-1-RFP-xenografted SCID beige mice, 2.5 h after intravenous injection of 1.85 MBq, n = 3–4/group) is on record?
Answer: 7.56 ± 0.41 %ID/g

Question: Which “percentage counts of nuclear uptake/whole-cell uptake” value (TFK-1 cells) does the source give for NCCN(CCN)CCN.[Cl-].[Cl-].[Cu+2] [Cu^2+-Tren] here?
Answer: highest average value

Question: Which urinary excretion ([1]; urine collected during the 2.5 h post-administration, intravenous, TFK-1-RFP-xenografted mice) does the source give for NCCNCCN.[Cl-].[Cl-].[Cu+2] [Cu^2+-Dien] here?
Answer: 1.68 ± 0.46 %ID
